According to PubChem BioAssay (NCI):
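How tested: cells in 96-well plates exposed to compound for 48 hours at five concentrations. GI50 = concentration required for 50% inhibition of growth. TGI: total growth inhibition.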

What was measured:
Assay in all cases: NCI tumour cell line growth inhibition, 48 h
SF-295 CNS = tested on: SF-295 CNS
NCI-H23 lung = tested on: NCI-H23 lung
MOLT-4 leukemia = tested on: MOLT-4 leukemia
DU-145 prostate = tested on: DU-145 prostate
HOP-62 NSCLC = tested on: HOP-62 NSCLC
SNB-75 CNS = tested on: SNB-75 CNS
M14 melanoma = tested on: M14 melanoma
SR leukemia = tested on: SR leukemia
SK-OV-3 ovarian = tested on: SK-OV-3 ovarian
OVCAR-4 ovarian = tested on: OVCAR-4 ovarian
UACC-62 melanoma = tested on: UACC-62 melanoma
NCI/ADR-RES ovarian = tested on: NCI/ADR-RES ovarian
LOX IMVI melanoma = tested on: LOX IMVI melanoma
K-562 leukemia = tested on: K-562 leukemia
ACHN renal = tested on: ACHN renal
SK-MEL-28 melanoma = tested on: SK-MEL-28 melanoma
MALME-3M melanoma = tested on: MALME-3M melanoma
NCI-H226 lung = tested on: NCI-H226 lung
COLO 205 colon = tested on: COLO 205 colon
CCRF-CEM leukemia = tested on: CCRF-CEM leukemia
SNB-19 CNS = tested on: SNB-19 CNS
SN12C renal = tested on: SN12C renal
RXF 393 renal = tested on: RXF 393 renal
HCC-2998 colon = tested on: HCC-2998 colon
PC-3 prostate = tested on: PC-3 prostate
SK-MEL-5 melanoma = tested on: SK-MEL-5 melanoma
A549 NSCLC = tested on: A549 NSCLC
OVCAR-8 ovarian = tested on: OVCAR-8 ovarian
BT-549 breast = tested on: BT-549 breast
OVCAR-5 ovarian = tested on: OVCAR-5 ovarian
UO-31 renal = tested on: UO-31 renal
T-47D breast = tested on: T-47D breast
UACC-257 melanoma = tested on: UACC-257 melanoma
NCI-H522 lung = tested on: NCI-H522 lung
MDA-MB-231 breast = tested on: MDA-MB-231 breast
OVCAR-3 ovarian = tested on: OVCAR-3 ovarian
HCT-15 colon = tested on: HCT-15 colon
IGROV1 ovarian = tested on: IGROV1 ovarian
HL-60(TB) leukemia = tested on: HL-60(TB) leukemia
U251 CNS = tested on: U251 CNS
SW-620 colon = tested on: SW-620 colon
NCI-H460 lung = tested on: NCI-H460 lung
EKVX NSCLC = tested on: EKVX NSCLC
CAKI-1 renal = tested on: CAKI-1 renal
RPMI-8226 leukemia = tested on: RPMI-8226 leukemia
MCF7 breast = tested on: MCF7 breast
HS 578T breast = tested on: HS 578T breast
SF-268 CNS = tested on: SF-268 CNS
786-0 renal = tested on: 786-0 renal
SK-MEL-2 melanoma = tested on: SK-MEL-2 melanoma
TK-10 renal = tested on: TK-10 renal
KM12 colon = tested on: KM12 colon
HT29 colon = tested on: HT29 colon
MDA-MB-435 = tested on: MDA-MB-435
HCT-116 colon = tested on: HCT-116 colon
SF-539 CNS = tested on: SF-539 CNS
A498 renal = tested on: A498 renal
HOP-92 NSCLC = tested on: HOP-92 NSCLC

Structure (SMILES): COc1cccc2[nH]c3c4c(c5c(c3c12)C(=O)N(CN1CCN(C)CC1)C5=O)CCC4
- GI50 (SF-295 CNS): 10.1 µM
- TGI (SF-295 CNS): 25.6 µM
- GI50 (NCI-H23 lung): 15 µM
- TGI (NCI-H23 lung): > 72.5 µM
- GI50 (MOLT-4 leukemia): 5.9 µM
- TGI (MOLT-4 leukemia): 42.3 µM
- GI50 (DU-145 prostate): 9.22 µM
- TGI (DU-145 prostate): 21.6 µM
- GI50 (HOP-62 NSCLC): 14.5 µM
- TGI (HOP-62 NSCLC): 39.1 µM
- GI50 (SNB-75 CNS): 9.2 µM
- TGI (SNB-75 CNS): 40.5 µM
- GI50 (M14 melanoma): 9.91 µM
- TGI (M14 melanoma): > 80.4 µM
- GI50 (SR leukemia): 2.11 µM
- TGI (SR leukemia): 11.1 µM
- GI50 (SK-OV-3 ovarian): 11.7 µM
- TGI (SK-OV-3 ovarian): 29.8 µM
- GI50 (OVCAR-4 ovarian): 8.03 µM
- TGI (OVCAR-4 ovarian): 26.9 µM
- GI50 (UACC-62 melanoma): 9.9 µM
- TGI (UACC-62 melanoma): 30.9 µM
- GI50 (NCI/ADR-RES ovarian): 12.2 µM
- TGI (NCI/ADR-RES ovarian): 37.5 µM
- GI50 (LOX IMVI melanoma): 11.8 µM
- TGI (LOX IMVI melanoma): 40.7 µM
- GI50 (K-562 leukemia): 16.3 µM
- TGI (K-562 leukemia): > 67.8 µM
- GI50 (ACHN renal): 5.81 µM
- TGI (ACHN renal): 36.4 µM
- GI50 (SK-MEL-28 melanoma): 10.8 µM
- TGI (SK-MEL-28 melanoma): 29.8 µM
- GI50 (MALME-3M melanoma): 6.43 µM
- TGI (MALME-3M melanoma): 63.2 µM
- GI50 (NCI-H226 lung): 9.46 µM
- TGI (NCI-H226 lung): > 90.9 µM
- GI50 (COLO 205 colon): 11.4 µM
- TGI (COLO 205 colon): 35.6 µM
- GI50 (CCRF-CEM leukemia): 5.55 µM
- TGI (CCRF-CEM leukemia): 33.3 µM
- GI50 (SNB-19 CNS): 13.3 µM
- TGI (SNB-19 CNS): 34.6 µM
- GI50 (SN12C renal): 11.2 µM
- TGI (SN12C renal): 33.9 µM
- GI50 (RXF 393 renal): 3.45 µM
- TGI (RXF 393 renal): 13.6 µM
- GI50 (HCC-2998 colon): 15.6 µM
- TGI (HCC-2998 colon): > 76 µM
- GI50 (PC-3 prostate): 6.58 µM
- TGI (PC-3 prostate): > 46.7 µM
- GI50 (SK-MEL-5 melanoma): 8.26 µM
- TGI (SK-MEL-5 melanoma): > 100 µM
- GI50 (A549 NSCLC): 8.49 µM
- TGI (A549 NSCLC): 25.6 µM
- GI50 (OVCAR-8 ovarian): 8.6 µM
- TGI (OVCAR-8 ovarian): 26.5 µM
- GI50 (BT-549 breast): 19 µM
- TGI (BT-549 breast): 99.1 µM
- GI50 (OVCAR-5 ovarian): 14.5 µM
- TGI (OVCAR-5 ovarian): 44.6 µM
- GI50 (UO-31 renal): 2.76 µM
- TGI (UO-31 renal): > 23.8 µM
- GI50 (T-47D breast): 4.62 µM
- TGI (T-47D breast): > 73.9 µM
- GI50 (UACC-257 melanoma): 14.8 µM
- TGI (UACC-257 melanoma): 45.1 µM
- GI50 (NCI-H522 lung): 8.95 µM
- TGI (NCI-H522 lung): > 56.9 µM
- GI50 (MDA-MB-231 breast): 15 µM
- TGI (MDA-MB-231 breast): 31.3 µM
- GI50 (OVCAR-3 ovarian): 13.7 µM
- TGI (OVCAR-3 ovarian): 34.2 µM
- GI50 (HCT-15 colon): 7.33 µM
- TGI (HCT-15 colon): 25.9 µM
- GI50 (IGROV1 ovarian): 4.79 µM
- TGI (IGROV1 ovarian): > 46.1 µM
- GI50 (HL-60(TB) leukemia): 19.6 µM
- TGI (HL-60(TB) leukemia): > 75.1 µM
- GI50 (U251 CNS): 6.3 µM
- TGI (U251 CNS): 21.8 µM
- GI50 (SW-620 colon): 13.6 µM
- TGI (SW-620 colon): 38 µM
- GI50 (NCI-H460 lung): 6.35 µM
- TGI (NCI-H460 lung): 25.8 µM
- GI50 (EKVX NSCLC): 14.1 µM
- TGI (EKVX NSCLC): 83.3 µM
- GI50 (CAKI-1 renal): 4.34 µM
- TGI (CAKI-1 renal): 38.8 µM
- GI50 (RPMI-8226 leukemia): 4.6 µM
- TGI (RPMI-8226 leukemia): 23.8 µM
- GI50 (MCF7 breast): 9.27 µM
- TGI (MCF7 breast): 39.7 µM
- GI50 (HS 578T breast): 18.2 µM
- TGI (HS 578T breast): > 88.3 µM
- GI50 (SF-268 CNS): 13.5 µM
- TGI (SF-268 CNS): > 52.3 µM
- GI50 (786-0 renal): 13.3 µM
- TGI (786-0 renal): 31.8 µM
- GI50 (SK-MEL-2 melanoma): 22.7 µM
- TGI (SK-MEL-2 melanoma): > 100 µM
- GI50 (TK-10 renal): 6.85 µM
- TGI (TK-10 renal): 28.3 µM
- GI50 (KM12 colon): 12.3 µM
- TGI (KM12 colon): 49.7 µM
- GI50 (HT29 colon): 8.99 µM
- TGI (HT29 colon): 29.8 µM
- GI50 (MDA-MB-435): 7.37 µM
- TGI (MDA-MB-435): 30.7 µM
- GI50 (HCT-116 colon): 13.2 µM
- TGI (HCT-116 colon): 45.7 µM
- GI50 (SF-539 CNS): 11.3 µM
- TGI (SF-539 CNS): 26 µM
- GI50 (A498 renal): 2.73 µM
- TGI (A498 renal): > 100 µM
- GI50 (HOP-92 NSCLC): 15.1 µM
- TGI (HOP-92 NSCLC): 44.9 µM
